Test results from paper PMC7949142, “NAD(H) phosphates mediate tetramer assembly of human C-terminal binding protein (CtBP)” (The Journal of Biological Chemistry, 2021).

Legend:
Type in all cases: binding
CtBP2 = molecular target: T1, CtBP2 (Homo sapiens, UniProt P56545); test: SEC-MALS tetramer assembly, concentration dependence
T1 construct: 31–445

CtBP1 [1] = molecular target: T2, CtBP1 (Homo sapiens, UniProt Q13363); test: as above; design: 28–440
CtBP1 [2] = molecular target: T2, CtBP1; test: SEC-MALS tetramer assembly; design: 28–375 (crystal); 28–440 (SEC-MALS)

| EC50 (CtBP2) | EC50 (CtBP1 [1]) | EC50 (CtBP1 [2]) | Structure (SMILES) |
| --- | --- | --- | --- |
| ~43 µM | ~52 µM | – | Nc1ncnc2c1ncn2[C@@H]1O[C@H](COP(=O)(O)OP(=O)(O)O)[C@@H](O)[C@H]1O [ADP] |
| – | – | ~66 µM | Nc1ncnc2c1ncn2[C@@H]1O[C@H](COP(=O)(O)O)[C@@H](O)[C@H]1O [AMP] |
